Results taken from ChEMBL document CHEMBL4699584, “Bioassay-Directed Isolation of Antibacterial Metabolites from an Arthropod-Derived Penicillium chrysogenum” (2020).

Assays:
Type in all cases: functional
Staphylococcus aureus = experiment: Antibacterial activity against methicillin-resistant Staphylococcus aureus assessed as reduction in microbial growth by broth microdilution method
Escherichia coli = experiment: Antibacterial activity against ESBL producing Escherichia coli assessed as reduction in microbial growth by broth microdilution method
Enterococcus faecalis = experiment: Antibacterial activity against Enterococcus faecalis assessed as reduction in microbial growth by broth microdilution method

Row | SMILES | MIC (Staphylococcus aureus) | MIC (Escherichia coli) | MIC (Enterococcus faecalis)
1 | C[C@H]1C=CC(=O)[C@]2(C)CC[C@H]3[C@@H]4C(CO)(CO)CC[C@]4(C)C[C@]132 | 2 µg/mL | 32 µg/mL | 32 µg/mL
2 | C[C@H]1[C@@H]2O[C@@H]2C(=O)[C@]2(C)CC[C@H]3[C@H]4[C@](C)(CC[C@]4(C)C(=O)O)C[C@]132 | 4 µg/mL | 32 µg/mL | 32 µg/mL
